Assay results from PubChem BioAssay AID2060607 (Molecular Pharmacology Branch, DTP, NCI, 2025).
Several values for one entry are separate records, joined by “and”; a condition that tells them apart may be missing. Identical values can stand only once.

Test system: 876862-298-R-J1-PDC complex spheroids, viability % test/control
Assay: Anticancer human tumor 876862-298-R-J1-PDC patient-derived endometrial carcinoma cell line growth inhibition [CLK]
Conditions: for viability, T/C: stronger effect = lower value
From the text: A high-throughput screen of multi-cell type tumor spheroids was designed to identify active combinations of […] and targeted small molecules. Complex spheroids include a stromal component modeled by human endothelial cells (HUVEC) and fibroblasts modeled by human mesenchymal stem cells (MSCs). The concentration ranges selected for each drug and investigational agent were based upon clinically achievable concentrations if the clinical Cmax of the agent was known.
Compounds. The drugs and investigational agents: cirtuvivint (SM08502; NSC835563), CC-671 (NSC850746), vemurafenib (NSC761431), tapotoclax (NSC804041), sotorasib (NSC818433), adagrasib (NSC831453), MRTX-1133 (NSC836407), BAY2416964 (NSC825713), copanlisib (NSC816437), inavolisib (NSC800729), abemaciclib (NSC768073), osimertinib (NSC779217), entinostat (NSC756642), eltanexor (KPT-8602, NSC794443), venetoclax (NSC766270), ceralasertib (NSC777638), bortezomib (NSC756655), olaparib (NSC753686), talazoparib (NSC767125), alisertib (NSC759677), peposertib (NSC802822), gemcitabine (NSC613327), 5-fluorouracil (NSC19893), SN-38 (NSC673596), oxaliplatin (NSC266046), paclitaxel (NSC125973), and doxorubicin (NSC123127), were obtained from the National Cancer Institute (NCI) Developmental Therapeutics Program Chemical Repository. The FDA-approved anticancer drug set is available from the Developmental Therapeutics Program at https://dtp.cancer.gov/organization/dscb/obtaining/available plates.htm. […] The stock solutions were prepared in dimethyl sulfoxide (DMSO, Sigma-Aldrich, St. Louis, MO, cat. D2650), except for the platinum complexes which were prepared in saline (Quality Biological, Gaithersburg, MD, cat. 114-055-101), at 800-fold the tested concentration and stored at -70 degrees C prior to their use. All drugs and investigational agents were tested over a range starting from a high concentration at or near the clinical Cmax and decreasing in half-log increments. If the clinical Cmax for an agent had not been determined, the highest concentration tested was 10 microM.
Cell Culture. All cells were maintained in an incubator at 37 degrees C and 5% CO2 with 95% humidity. The PDC lines were cultured according to standard operating procedures established by the NCI PDMR. Briefly, all PDCs were thawed and cultured in Matrigel-coated flasks prepared with a working solution of 1X Ham's F-12 nutrient mix, without supplementation (Invitrogen, Waltham, MA, cat. 11765054), 100 U/mL penicillin-streptomycin (Invitrogen, cat. 15140122), and 2.5% Matrigel (Corning Inc., Corning, NY, cat. 354248) for the first three passages. The 947758-054-R-J2-PDC line was cultured in 6B/Colon 1A media, which includes advanced DMEM/F-12 (Thermo Fisher Scientific, cat. 12634028), 10 mM HEPES (Thermo Fisher Scientific, cat. 15630080), 1X GlutaMAX supplement (Thermo Fisher Scientific, cat. 35050061), 0.1 mg/mL primocin (InvivoGen, cat. ant-pm-2), 10% defined fetal bovine serum, heat inactivated (HyClone Laboratories Inc., cat. SH30070.03HI), 1.25 mM N-Acetyl-L-cysteine (Sigma-Aldrich, cat. A9165), 10 mM nicotinamide (Sigma-Aldrich, cat. N0636), 1X B-27 supplement (Thermo Fisher Scientific, cat. 17504044), 1X N-2 supplement (Thermo Fisher Scientific, cat. 17502048), and 10 microM Y-27632 dihydrochloride (Tocris Bioscience, cat. 1254). The 876862-298-R-J1-PDC was cultured in 6E media, which includes all 6B/Colon 1A media components plus 50% L-WRN conditioned media (ATCC, cat. CRL-3276), 50 ng/mL recombinant human EGF recombinant protein (hEGF; Thermo Fisher Scientific, cat. PHG0311), 10 ng/mL recombinant human fibroblast growth factor 10 (hGFG-10; PeproTech, cat. 100-26), 1 ng/mL recombinant human fibroblast growth factor 2 (hFGF-2; PeproTech, cat. 100-18B), and 1 µM prostaglandin E2 (PGE2; Tocris, cat. 2296). The 227483-062-R1-J1-PDC line was cultured in Panc media, containing all 6E components except hFGF-2, with the addition of 500 nM SB-431542 (Selleckchem, cat. S1067) and 10 nM gastrin (Tocris, cat. 3006). […]
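Further: spheroids exposed to drugs for 7 days before readout.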
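Wherever viability, T/C is given: 100% = DMSO vehicle control wells.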

CCc1c2c(nc3ccc(O)cc13)-c1cc3c(c(=O)n1C2)COC(=O)[C@]3(O)CC
viability, T/C (compound 0.00316 µM): 48% and 36.5% | viability, T/C (compound 0.01 µM): 9.1% and 7.37% | viability, T/C (compound 0.0316 µM): 6.83% and 6.05% | viability, T/C (compound 0.1 µM): 5.12% and 5.99% | viability, T/C (compound 0.316 µM): 3.64% and 4.64% | viability, T/C (compound 1 µM): 2.58% and 4.7% | IC50 (curve of compound): < 0.00316 µM

CN1CCN(c2cc(C(=O)Nc3cc4cc(-c5cnn(C)c5)ccc4cn3)ccn2)CC1
viability, T/C (compound 0.0316 µM): 95.1% [middle of 12 runs] | viability, T/C (compound 0.1 µM): 49.8% [middle of 12 runs] | viability, T/C (compound 0.316 µM): 3.46% [middle of 12 runs] | viability, T/C (compound 1 µM): 1.68% [middle of 12 runs] | viability, T/C (compound 3.16 µM): 1.49% [middle of 12 runs] | viability, T/C (compound 10 µM): 1.35% [middle of 12 runs] | IC50 (compound alone, run of 09/18/2023): 99.4 nM [middle of 12 runs]

CNC(=O)c1ccc(Nc2nc(OC3CCCC3)c3c(-c4ccc5nc(C)oc5c4)c[nH]c3n2)c(OC)c1
viability, T/C (compound 0.0316 µM): 86% [middle of 12 runs] | viability, T/C (compound 0.1 µM): 49.5% [middle of 12 runs] | viability, T/C (compound 0.316 µM): 37.8% [middle of 12 runs] | viability, T/C (compound 1 µM): 28.6% [middle of 12 runs] | viability, T/C (compound 3.16 µM): 24.6% [middle of 12 runs] | viability, T/C (compound 10 µM): 23.1% [middle of 12 runs] | IC50 (compound alone, run of 09/19/2023): 112 nM [middle of 11 runs]

COC1C=CCC(C)C(C)S(=O)(=O)NC(=O)c2ccc3c(c2)N(CC2CCC21)CC1(CCCc2cc(Cl)ccc21)CO3 (configuration not stated)
viability, T/C (compound 0.0316 µM): 112% and 102% | viability, T/C (compound 0.1 µM): 97.2% and 97.7% | viability, T/C (compound 0.316 µM): 102% and 97.5% | viability, T/C (compound 1 µM): 107% and 99.3% | viability, T/C (compound 3.16 µM): 109% and 99.7% | viability, T/C (compound 10 µM): 38.3% and 29.6% | IC50 (curve of compound): 8.2 µM and 7.14 µM

COc1c(OCCCN2CCOCC2)ccc2c3n(c(=NC(=O)c4cnc(N)nc4)nc12)CCN3
viability, T/C (compound 0.00316 µM): 105% and 81.8% | viability, T/C (compound 0.01 µM): 89.7% and 83.9% | viability, T/C (compound 0.0316 µM): 70.9% and 57% | viability, T/C (compound 0.1 µM): 37.8% and 26.3% | viability, T/C (compound 0.316 µM): 17% and 14.9% | viability, T/C (compound 1 µM): 15% and 16% | IC50 (curve of compound): 0.0635 µM and 0.0421 µM

Cn1ncnc1[C@H]1c2n[nH]c(=O)c3cc(F)cc(c23)N[C@@H]1c1ccc(F)cc1
viability, T/C (compound 0.000316 µM): 110% and 102% | viability, T/C (compound 0.001 µM): 91.2% and 96.9% | viability, T/C (compound 0.00316 µM): 106% and 96.8% | viability, T/C (compound 0.01 µM): 103% and 105% | viability, T/C (compound 0.0316 µM): 107% and 114% | viability, T/C (compound 0.1 µM): 107% and 101% | IC50 (curve of compound): > 0.1 µM

NC(=O)C(=Cn1cnc(-c2cc(C(F)(F)F)cc(C(F)(F)F)c2)n1)c1cncnc1
viability, T/C (compound 0.00949 µM): 78% and 78.2% | viability, T/C (compound 0.03 µM): 54.1% and 60.3% | viability, T/C (compound 0.0949 µM): 37.5% and 38.2% | viability, T/C (compound 0.3 µM): 33.6% and 27.7% | viability, T/C (compound 0.949 µM): 24.4% and 18.7% | viability, T/C (compound 3 µM): 13.4% and 12.4% | IC50 (curve of compound): 0.0473 µM and 0.0522 µM

Nc1ccccc1NC(=O)c1ccc(CNC(=O)OCc2cccnc2)cc1
viability, T/C (compound 0.0316 µM): 99.9% and 95.4% | viability, T/C (compound 0.1 µM): 106% and 99.6% | viability, T/C (compound 0.316 µM): 105% | viability, T/C (compound 1 µM): 91.7% and 106% | viability, T/C (compound 3.16 µM): 80.1% and 75.2% | viability, T/C (compound 10 µM): 39.1% and 29.7% | IC50 (curve of compound): 7.34 µM and 6 µM

Nc1ccn(C2OC(CO)C(O)C2(F)F)c(=O)n1 (configuration not stated)
viability, T/C (compound 0.0316 µM): 12.8% and 8.55% | viability, T/C (compound 0.1 µM): 7.47% and 6.97% | viability, T/C (compound 0.316 µM): 7.3% and 6.5% | viability, T/C (compound 1 µM): 6.05% and 6.36% | viability, T/C (compound 3.16 µM): 6.22% and 8.41% | viability, T/C (compound 10 µM): 7.04% and 6.47% | IC50 (curve of compound): < 0.0316 µM

O=C(c1cc(Cc2n[nH]c(=O)c3ccccc23)ccc1F)N1CCN(C(=O)C2CC2)CC1
viability, T/C (compound 0.0316 µM): 105% and 91.5% | viability, T/C (compound 0.1 µM): 107% and 99% | viability, T/C (compound 0.316 µM): 109% and 99.4% | viability, T/C (compound 1 µM): 109% and 104% | viability, T/C (compound 3.16 µM): 108% and 106% | viability, T/C (compound 10 µM): 90.4% and 89.1% | IC50 (curve of compound): > 10 µM

O=c1[nH]cc(F)c(=O)[nH]1
viability, T/C (compound 0.0316 µM): 99.1% and 101% | viability, T/C (compound 0.1 µM): 93.2% and 107% | viability, T/C (compound 0.316 µM): 100% and 99.6% | viability, T/C (compound 1 µM): 104% and 101% | viability, T/C (compound 3.16 µM): 70% and 56.4% | viability, T/C (compound 10 µM): 54.1% and 46.7% | IC50 (curve of compound): > 10 µM and 6.77 µM
